Measurements published in patent publication US9132103B2, “Disinfecting agent comprising eugenol, terpineol and thymol” (Conopco, Inc., priority 2009, dated 2015).

Test system: E. coli ATCC 10536
Experiment: Bacterial kill after 15 seconds of contact (viable E. coli count by neutralization, serial dilution and plating)
Type: cell-based
Settings: log10 of viable E. coli remaining after 15 seconds of contact; about 10^7 cells; water carrier; Table 2
Description: About 10^7 bacterial cells (E. coli ATCC 10536) were taken in a test tube and contacted with various compositions for a period of 15 seconds. Bacteria were taken out after 15 seconds of contact and presence of viable cells was determined by neutralization of the antimicrobial, serial dilution and plating on agar plates. The data is presented in Table-1 as log (Viable E. Coli) which is the log10 of the number of viable E. coli remaining after 15 seconds of contact. Thus if 10^4 remained, log (Viable E. coli) is 4.
The data in Table-1 is an average result of four experiments.
Various compositions as shown in Table-2 were prepared using the same procedure as used for examples 1 to 3 and the antibacterial efficacy was evaluated using the same procedure as used to evaluate Examples 1 to 3. The data on antibacterial efficacy is represented in Table-2.
Compositions as summarized in Table-3 were prepared using a similar procedure as used for Examples 1 to 3 and the antibacterial efficacy was evaluated using a procedure similar to that used for Examples 1 to 3.
The various compositions were diluted with water in a ratio of composition:water of 1:400 and then tested for antibacterial efficacy. The procedure used was similar to that used for Examples 1 to 3.
Soap bar compositions were prepared as per conventional procedure for preparing milled and plodded soap bars. […]

Row | Molecule | Log (Viable E. coli)
1 | Cc1ccc(C(C)C)c(O)c1 [Example 6, Thymol] | 6.5
2 | Terpineol [Example 7] | 6.5
